The values below come from paper PMC7377239, “Cardiovascular Effects of Polychlorinated Biphenyls and Their Major Metabolites” (Environmental Health Perspectives, 2020).

Series [1] concerns iCell cardiomyocytes (human iPSC-derived cardiomyocytes). As to the kind of experiment: Intracellular Ca2+ flux / beating parameters in iCell cardiomyocytes (FLIPR tetra), 90 min or 24 h. It counts as cell-based. The conditions noted are these: for activity at 0.01 µM / activity at 0.1 µM / activity at 1 µM / activity at 10 µM / activity at 100 µM: Homo sapiens, Cardiomyocyte, 0.00 µM = 100.00; for activity at 0.1 µM: 0.10 µM; for inotropic effect (cell beating parameters): iPSC-CMs, concentration-response 0.01-100 μM, 90 min and 24 h. The gist of the method: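 Gelatin-plated iCell cardiomyocytes (5,000/well) were dye-loaded for 2 h at 37 °C, then exposed for 90 min or 24 h to PCBs/metabolites (5× plates at 0.05–500 µM; 0.5% DMSO final) in triplicate. Ca2+ flux was read for 100 s at 8 Hz and 37 °C. Peak height, frequency, spacing CV and decay/rise ratio were vehicle-normalized and fitted with a four-parameter logistic model, with POD set at 1 SD of vehicle.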

The next series concerns ryanodine receptor (RyR). Also noted: method as in Wong et al. 2001, 1997; Wong and Pessah 1997. The conditions noted are these: mechanism involving the ryanodine receptor; ref Wong et al. 2001, 1997; Wong and Pessah 1997; cited from earlier work.
The subject of series [2] is porcine pulmonary artery–derived EC. More on the design: method as in Hennig et al. 2002, 2005; Toborek et al. 1995. The conditions noted are these: ref Hennig et al. 2002, 2005, Toborek et al. 1995; cited from earlier work.
In a further series the test system is zebrafish. Also noted: method as in Li et al. 2014; Teixidó et al. 2019. The following applies: ref Li et al. 2014; Teixidó et al. 2019; cited from earlier work.
Setting [3] is: 1.5 h, 90min, read-out: cm.amp.avg.90min.
The mark [4] stands for this setting: 1.5 h, 90min, read-out: cm.amp.cv.90min.
The mark [5] stands for this setting: 1.5 h, 90min, read-out: cm.bpm.90min.
[6] abbreviates: 1.5 h, 90min, read-out: cm.decay.rise.90min.
Where [7] appears, read: 1.5 h, 90min, read-out: cm.spacing.cv.90min.
The mark [8] stands for this setting: 24 h, 24hrs, read-out: cm.amp.avg.24hrs.
[9] abbreviates: 24 h, 24hrs, read-out: cm.amp.cv.24hrs.
Where [10] appears, read: 24 h, 24hrs, read-out: cm.bpm.24hrs.
Where [11] appears, read: 24 h, 24hrs, read-out: cm.decay.rise.24hrs.
The mark [12] stands for this setting: 24 h, 24hrs, read-out: cm.spacing.cv.24hrs.

Structures are written as SMILES. Where two headings read alike, the source gives them in different places.

For `Clc1cc(Cl)c(-c2cc(Cl)c(Cl)cc2Cl)cc1Cl` [PCB153], the activity at 0.01 µM in series [1] (setting [3]) came out at 105%; in series [1] (setting [4]), 113%; in series [1] (setting [5]), 107%; in series [1] (setting [6]), 97.7%; in series [1] (setting [7]), 119%; in series [1] (setting [8]) it was 50.2%. Further, the activity at 0.01 µM in series [1] (setting [9]) was found to be 50.5%; in series [1] (setting [10]), 51.5%; in series [1] (setting [11]), 57.7%; in series [1] (setting [12]) it was 50.2%. The activity at 0.1 µM in series [1] (setting [3]) amounted to 107%; in series [1] (setting [4]), 98.7%; in series [1] (setting [5]), 97.8%; in series [1] (setting [6]), 100%; in series [1] (setting [7]), 102%; in series [1] (setting [8]) it was 81.6%. Besides, the activity at 0.1 µM in series [1] (setting [9]) came to 123%; in series [1] (setting [10]), 101%; in series [1] (setting [11]), 92.5%; in series [1] (setting [12]), 108%. Moreover, the activity at 1 µM in series [1] (setting [3]) came to 108%; in series [1] (setting [4]), 121%; in series [1] (setting [5]), 103%; in series [1] (setting [6]), 92.5%; in series [1] (setting [7]) it was 108%; in series [1] (setting [8]) it was 125%. The activity at 1 µM in series [1] (setting [9]) turned out to be 84.9%; in series [1] (setting [10]), 99.3%; in series [1] (setting [11]), 102%; in series [1] (setting [12]), 97.8%. In addition, the activity at 10 µM in series [1] (setting [3]) is 93.7%; in series [1] (setting [4]), 126%; in series [1] (setting [5]) it was 120%; in series [1] (setting [6]), 92.4%; in series [1] (setting [7]) it was 119%; in series [1] (setting [8]), 122%. The activity at 10 µM in series [1] (setting [9]) was found to be 120%; in series [1] (setting [10]), 129%; in series [1] (setting [11]), 93%; in series [1] (setting [12]), 121%. Moreover, the activity at 100 µM in series [1] (setting [3]), in series [1] (setting [4]), in series [1] (setting [5]), in series [1] (setting [6]), in series [1] (setting [7]) and in series [1] (setting [8]) was 0% in each case. Further, the activity at 100 µM in series [1] (setting [9]), in series [1] (setting [10]), in series [1] (setting [11]) and in series [1] (setting [12]) was 0% in each case.
Regarding `Clc1ccc(-c2ccccc2)cc1` [PCB 3, 4-chlorobiphenyl], the “inotropic effect (cell beating parameters)” value in series [1] is listed as “positive inotropic effects”.
With `Clc1ccc(Cl)c(-c2c(Cl)ccc(Cl)c2Cl)c1` [PCB 95, 2,2′,3,5′,6-pentachlorobiphenyl], in the series with ryanodine receptor (RyR), the cellular calcium release entry is listed as “sensitizing cellular calcium release”.
As to `Clc1ccc(-c2cc(Cl)c(Cl)c(Cl)c2)cc1Cl` [PCB 126, 3,3′,4,4′,5-pentachlorobiphenyl], the EC toxicity result in series [2] is given as “potent inducers of EC toxicity”. For the same compound, the “inotropic effect (cell beating parameters)” value in series [1] is “positive inotropic effects”. For the same compound, the “cardiovascular toxicity in zebrafish” value in the series on zebrafish was “pericardial edema, cardiac looping defects, and circulatory failure”.
`Clc1cc(Cl)c(-c2cc(Cl)c(Cl)cc2Cl)cc1Cl` [PCB 153, 2,2′,4,4′,5,5′-hexachlorobiphenyl]: in series [2], the EC toxicity entry is “much less potent”.
